The target in one test is T1, purified integrase (Human immunodeficiency virus type 1 group M subtype B, UniProt P12497).
T1 construct: Recombinant integrase (0.26 ng) was incubated with the beads
The test can be described thus: HIV-Integrase binding assay (competition with radiolabeled integrase inhibitor). The conditions noted are these: competition with [3H]-labeled integrase inhibitor; Cheng and Prusoff. The method, then:
HIV-Integrase binding assay. In this assay competitive binding experiments with test compounds and a radiolabeled integrase inhibitor (compound A) are performed against purified integrase. […] Binding reactions were carried out in 96-well white polystyrene assay plates (Corning, #3600). The following was added sequentially to each well: 20 μl of water or 20μl of human serum (Cellgro Cat# 35-060-CL), 5 μl of serially diluted compound (in 50% DMSO/50% integrase SPA buffer), 5 μl of [^3H]-compound I (6,000 cpm/μl in SPA buffer) and 20 μl of bead/DNA/enzyme complex. The plates were shaken for 2 hours and then allowed to sit at room temperature without shaking overnight. The [^3H]-compound I binding was measured using a Topcount scintillation counter. Cheng and Prusoff equations were used to convert the inhibition of compound 1 binding into the corresponding Ki value. Activity equal to A refers to a compound having Ki=0.001 to 0.003 μM while B and C denote compounds having Ki=0.003 to 0.05 μM and Ki≧0.050 μM respectively.

For test [1], the system named is recombinant NL-Rluc virus. The test can be described thus: Inhibition of HIV replication. In kind it is cell-based. The following applies: three serum conditions described, the one tabulated is not stated.
Setting [2] is: Human immunodeficiency virus 1, read-out: Antiviral Activity, NL-RLuc virus.

pEC50, pKi: −log10 of the molar value. Where two headings read alike, the source gives them in different places. Where only a bound is given, the exact number is not on record here.

Turning to `Cc1ncnn1-c1cc(F)ccc1CNC(=O)c1nc2n(c(=O)c1O)CCOCC21CCN(S(=O)(=O)N(C)C)CC1` [Example 70], the negative logarithm of the Ki (pKi) (as a rule, the negative decadic logarithm of the Ki, by convention in mol/L) on purified integrase was 7.30 to 8.52. The pEC50 in test [1] (setting [2]) is 7.00 to 8.00.

On purified integrase, `Cc1ncnn1-c1cc(F)ccc1CNC(=O)c1nc2n(c(=O)c1O)CCCOC21CCN(C(=O)OCc2ccccc2)CC1` [Example 53] showed a negative-log Ki (pKi) of 7.30 to 8.52. Further, in test [1] (setting [2]), the pEC50 is 8.00 to 9.00.

The compound `Cc1ncnn1-c1cc(F)ccc1CNC(=O)c1nc2n(c(=O)c1O)CCOCC21CCN(C(=O)OCc2ccccc2)CC1` [Example 55] showed a pKi on purified integrase of 7.30 to 8.52. Besides, in test [1] (setting [2]), the pEC50 was 8.00 to 9.00.

With `CN(C)S(=O)(=O)N1CCC2(CC1)COCCn1c2nc(C(=O)NCc2ccc(F)cc2)c(O)c1=O` [Example 68], the pKi on purified integrase is 7.30 to 8.52. Further, the pEC50 in test [1] (setting [2]) was 7.00 to 8.00.

As for `Cc1nnc(C(=O)N2CCC3(C2)OCCn2c3nc(C(=O)NCc3ccc(F)cc3-n3ncnc3C)c(O)c2=O)o1` (stereo not shown) [Example 46, N-(4-Fluoro-2-(5-methyl-1H-1,2,4-triazol-1-yl)benzyl)-3-hydroxy-1′-(5-methyl-1,3,4-oxadiazole-2-carbonyl)-4-oxo-6,7-dihydro-4H-spiro[pyrimido[2,1-c][1,4]oxazine-9,3′-pyrrolidine]-2-carboxamide], the pKi on purified integrase was 7.30 to 8.52. Moreover, the pEC50 in test [1] (setting [2]) is under 7.00.

As for `CS(=O)(=O)N1CCC2(CC1)OCCCn1c2nc(C(=O)NCc2ccc(F)cc2)c(O)c1=O` [Example 60], the negative-log Ki (pKi) on purified integrase was 8.52 to 9.00. Moreover, the pEC50 in test [1] (setting [2]) was 8.00 to 9.00.

In turn, `Cc1ncnn1-c1cc(F)ccc1CNC(=O)c1nc2n(c(=O)c1O)CCCOC21CCN(S(C)(=O)=O)CC1` [Example 73] had a negative logarithm of the Ki (pKi) on purified integrase of 7.30 to 8.52. In addition, the pEC50 in test [1] (read-out: Antiviral Activity, NL-RLuc virus) was under 7.00.

For `Cc1ncnn1-c1cc(F)ccc1CNC(=O)c1nc2n(c(=O)c1O)CCCOC21CCN(C(=O)N(C)C)CC1` [Example 65], at purified integrase, the pKi was 7.30 to 8.52. The pEC50 in test [1] (setting [2]) is 8.00 to 9.00.

Turning to `O=C(NCc1ccc(F)cc1N1CCCCS1(=O)=O)c1nc2n(c(=O)c1O)CCCOC21CCN(C(=O)OCc2ccccc2)CC1` [Example 51], the pKi at purified integrase was 7.30 to 8.52. For the same compound, the pEC50 in test [1] (setting [2]) was 8.00 to 9.00.

Consider `CN(C)C(=O)N1CCC2(CC1)OCCCn1c2nc(C(=O)NCc2ccc(F)cc2)c(O)c1=O` [Example 59], for which the negative-log Ki (pKi) on purified integrase is 8.52 to 9.00. The pEC50 in test [1] (setting [2]) is 8.00 to 9.00.

`CCOC(=O)C(=O)N1CCC2(C1)OCCn1c2nc(C(=O)NCc2ccc(F)cc2)c(O)c1=O` (stereo not shown) [Example 45, Ethyl 2-(2-(4-fluorobenzylcarbamoyl)-3-hydroxy-4-oxo-6,7-dihydro-4H-spiro[pyrimido[2,1-c][1,4]oxazine-9,3′-pyrrolidine]-1′-yl)-2-oxoacetate]: the negative-log Ki (pKi) at purified integrase was 8.52 to 9.00. The pEC50 in test [1] (setting [2]) was 7.00 to 8.00.

Compound `CCOC(=O)C(=O)N1CCC2(C1)OCCn1c2nc(C(=O)NCc2ccc(F)cc2-n2ncnc2C)c(O)c1=O` (stereo not shown) [Example 47, Ethyl 2-(2-(4-fluoro-2-(5-methyl-1H-1,2,4-triazol-1-yl)benzylcarbamoyl)-3-hydroxy-4-oxo-6,7-dihydro-4H-spiro[pyrimido[2,1-c][1,4]oxazine-9,3′-pyrrolidine]-1′-yl)-2-oxoacetate] showed a negative-log Ki (pKi) at purified integrase of 7.30 to 8.52. Further, the pEC50 in test [1] (setting [2]) is under 7.00.

In the case of `CN(C)C(=O)C(=O)N1CCC2(CC1)OCCCn1c2nc(C(=O)NCc2ccc(F)cc2)c(O)c1=O` [Example 75, 1-(2-(Dimethylamino)-2-oxoacetyl)-N-(4-fluorobenzyl)-3′-hydroxy-4′-oxo-4′,6′,7′,8′-tetrahydrospiro[piperidine-4,10′-pyrimido[2,1-c][1,4]oxazepine]-2′-carboxamide], at purified integrase, the pKi was 7.30 to 8.52. Besides, the pEC50 in test [1] (setting [2]) is 7.00 to 8.00.

`O=C(NCc1ccc(F)cc1)c1nc2n(c(=O)c1O)CCCOC21CCN(C(=O)OCc2ccccc2)CC1` [Example 48] showed a pKi on purified integrase of 8.52 to 9.00. The pEC50 in test [1] (setting [2]) was 7.00 to 8.00.

The record behind these values is US7897593B2, “HIV integrase inhibitors” (priority 2006, dated 2011).
